Test results as given in patent publication US9247741B2, “Use of macrocyclic picolinamides as fungicides” (DOW AGROSCIENCES LLC, priority 2013, dated 2016).
Read-outs that look alike come from different tables or passages of the source.

What was measured:
Type in all cases: in vivo
[1] = test system: Mycosphaerella graminicola; Anamorph: Septoria tritici; assay: Leaf blotch of wheat (SEPTTR) disease control on wheat seedlings; conditions: Zymoseptoria tritici, wheat; for pest or weed control at 121.5 g/ha: 121.5 g/H (low volume track spray); for pest or weed control at 100 ppm: 100 ppm (high volume)
Description: Evaluation of Fungicidal Activity: Leaf Blotch of Wheat (Mycosphaerella graminicola; Anamorph: Septoria tritici; Bayer Code […]) Technical grades of materials were dissolved in acetone, which were then mixed with nine volumes of water containing 110 ppm Triton X-100. The fungicide solutions were applied onto wheat seedlings using an automated booth sprayer to run-off. All sprayed plants were allowed to air dry prior to further handling. All fungicides were evaluated using the aforementioned method for their activity vs. all target diseases. Wheat leaf blotch and brown rust activity were also evaluated using track spray applications, in which case the fungicides were formulated as EC formulations, containing 0.1% Trycol 5941 in the spray solutions. Wheat plants (variety Yuma) were grown from seed in a greenhouse in 50% mineral soil/50% soil-less Metro mix until the first leaf was fully emerged, with 7-10 seedlings per pot. These plants were inoculated with an aqueous spore suspension of Septoria tritici either prior to or after fungicide treatments. After inoculation the plants were kept in 100% relative humidity (one day in a dark dew chamber followed by two to three days in a lighted dew chamber at 20° C.) to permit spores to germinate and infect the leaf. The plants were then transferred to a greenhouse set at 20° C. for disease to develop. When disease symptoms were fully expressed on the l^st leaves of untreated plants, infection levels were assessed on a scale of 0 to 100 percent disease severity. Percent disease control was calculated using the ratio of disease severity on treated plants relative to untreated plants.

[2] = test system: Leptosphaeria nodorum; assay: Wheat glume blotch (LEPTNO) disease control; conditions: Parastagonospora nodorum, 24 h, 1 Day Protectant, read-out: LEPTNO disease control rating
Description: Technical grades of materials were dissolved in acetone, which were then mixed with nine volumes of water containing 110 ppm Triton X-100. The fungicide solutions were applied onto wheat seedlings using an automated booth sprayer to run-off. All sprayed plants were allowed to air dry prior to further handling. All fungicides were evaluated using the aforementioned method for their activity vs. all target diseases. Wheat leaf blotch and brown rust activity were also evaluated using track spray applications, in which case the fungicides were formulated as EC formulations, containing 0.1% Trycol 5941 in the spray solutions. Wheat plants (variety Yuma) were grown from seed in a greenhouse in 50% mineral soil/50% soil-less Metro mix until the first leaf was fully emerged, with 7-10 seedlings per pot. These plants were inoculated with an aqueous spore suspension of Septoria tritici either prior to or after fungicide treatments. After inoculation the plants were kept in 100% relative humidity (one day in a dark dew chamber followed by two to three days in a lighted dew chamber at 20° C.) to permit spores to germinate and infect the leaf. The plants were then transferred to a greenhouse set at 20° C. for disease to develop. When disease symptoms were fully expressed on the l^st leaves of untreated plants, infection levels were assessed on a scale of 0 to 100 percent disease severity. Percent disease control was calculated using the ratio of disease severity on treated plants relative to untreated plants. Evaluation of Fungicidal Activity: Wheat Glume Blotch (Leptosphaeria nodorum; Bayer Code […]) Wheat plants (variety Yuma) were grown from seed in a greenhouse in 50% mineral soil/50% soil-less Metro mix until the first leaf was fully emerged, with 7-10 seedlings per pot. These plants were inoculated with an aqueous spore suspension of Leptosphaeria nodorum 24 hr after fungicide treatments. After inoculation the plants were kept in 100% relative humidity (one day in a dark dew chamber followed by two days in a lighted dew chamber at 20° C.) to permit spores to germinate and infect the leaf. The plants were then transferred to a greenhouse set at 20° C. for disease to develop. Fungicide formulation, application and disease assessment followed the procedures as described in the Example A.

[3] = test system: Blumeria graminis Fsp. Hordei; assay: Barley powdery mildew (ERYSGH) disease control; conditions: 24 h, 1 Day Protectant, read-out: ERYSGH disease control rating
Description: Technical grades of materials were dissolved in acetone, which were then mixed with nine volumes of water containing 110 ppm Triton X-100. The fungicide solutions were applied onto wheat seedlings using an automated booth sprayer to run-off. All sprayed plants were allowed to air dry prior to further handling. All fungicides were evaluated using the aforementioned method for their activity vs. all target diseases. Wheat leaf blotch and brown rust activity were also evaluated using track spray applications, in which case the fungicides were formulated as EC formulations, containing 0.1% Trycol 5941 in the spray solutions. Wheat plants (variety Yuma) were grown from seed in a greenhouse in 50% mineral soil/50% soil-less Metro mix until the first leaf was fully emerged, with 7-10 seedlings per pot. These plants were inoculated with an aqueous spore suspension of Septoria tritici either prior to or after fungicide treatments. After inoculation the plants were kept in 100% relative humidity (one day in a dark dew chamber followed by two to three days in a lighted dew chamber at 20° C.) to permit spores to germinate and infect the leaf. The plants were then transferred to a greenhouse set at 20° C. for disease to develop. When disease symptoms were fully expressed on the l^st leaves of untreated plants, infection levels were assessed on a scale of 0 to 100 percent disease severity. Percent disease control was calculated using the ratio of disease severity on treated plants relative to untreated plants. Evaluation of Fungicidal Activity: Barley Powdery Mildew (Blumeria graminis Fsp. Hordei; Synonym: Erysiphe graminis Fsp. Hordei; Bayer Code […]) Barley seedlings (variety Harrington) were propagated in soil-less Metro mix, with each pot having 8 to 12 plants, and used in the test when first leaf was fully emerged. Test plants were inoculated by dusting with infected stock plants 24 hr after fungicide treatments. After inoculation the plants were kept in a greenhouse set at 20° C. for disease to develop. Fungicide formulation, application and disease assessment on the sprayed leaves followed the procedures as described in the Example A.

[4] = 24 h, 1 Day Protectant, read-out: SEPTTR 1DP disease control rating
[5] = 72 h, 3 Day Curative, read-out: SEPTTR 3DC disease control rating

Compound	pest or weed control at 121.5 g/ha [1, 4] [%]	pest or weed control at 121.5 g/ha [1, 5] [%]	pest or weed control at 100 ppm [2] [%]	pest or weed control at 100 ppm [3] [%]	pest or weed control at 100 ppm [1, 4] [%]	pest or weed control at 100 ppm [1, 5] [%]
CCCO[C@H]1CCC[C@H](NC(=O)c2nccc(OC)c2OCOC(C)=O)C(=O)O[C@@H](C)[C@@H]1CCC(C)C [Compound 25, ((2-(((3S,7S,8S,9S)-8-isopentyl-9-methyl-2-oxo-7-propoxyoxonan-3-yl)carbamoyl)-4-methoxypyridin-3-yl)oxy)methyl acetate]	< 70	> 70	> 70	> 70		
CCCC[C@H]1[C@H](C)OC(=O)[C@@H](NC(=O)c2nccc(OC)c2OCOC(C)=O)CCC[C@@H]1Oc1ccccc1 [Compound 33]	> 70	> 70	> 70	> 70		
COc1ccnc(C(=O)N[C@H]2CCC[C@H](Oc3ccccc3)[C@@H](CCC(C)C)[C@H](C)OC2=O)c1OC(C)=O [Compound 36]	> 70	> 70	> 70	> 70		
COc1ccnc(C(=O)N[C@H]2CCC[C@H](Oc3ccccc3)[C@@H](CCC(C)C)[C@H](C)OC2=O)c1OCOC(C)=O [Compound 40]	> 70	> 70	> 70	> 70		
COc1ccnc(C(=O)N[C@H]2CCC[C@H](OCC3CC3)[C@@H](Cc3ccc(F)cc3)[C@H](C)OC2=O)c1OCOC(C)=O [Compound 61]	> 70	> 70	> 70	< 70		
CCCO[C@H]1CCC[C@H](NC(=O)c2nccc(OC)c2OC(C)=O)C(=O)O[C@@H](C)[C@@H]1Cc1ccccc1 [Compound 70]	> 70	> 70	> 70	< 70	> 70	> 70
CCCC[C@H]1[C@H](C)OC(=O)[C@@H](NC(=O)c2nccc(OC)c2OCOC(C)=O)CCC[C@@H]1OCC1CC1 [Compound 73]	> 70	> 70	> 70	> 70		
CCCO[C@H]1CCC[C@H](NC(=O)c2nccc(OC)c2OC(C)=O)C(=O)O[C@@H](C)[C@@H]1CCC(C)C [Compound 74, 2-(((3S,7S,8S,9S)-8-isopentyl-9-methyl-2-oxo-7-propoxyoxonan-3-yl)carbamoyl)-4-methoxypyridin-3-yl acetate]	> 70	> 70	> 70	< 70		
